The target of experiment [1] is T1, human PRS protein (His-Avi-hEPRS (998-1512)) (Homo sapiens, UniProt P07814).
T1 construct: to construct His-Avi-hEPRS (998-1512) expression plasmid; His tag (N); Avi tag (N); TEV cleavage site (ENLYFQG, then S; inferred from the forward primer hEPRS-TEV-NheF) (N); made in house; host or cells: E. coli BL21(DE3)
T1 sequence (P07814 998-1512 limits assumed): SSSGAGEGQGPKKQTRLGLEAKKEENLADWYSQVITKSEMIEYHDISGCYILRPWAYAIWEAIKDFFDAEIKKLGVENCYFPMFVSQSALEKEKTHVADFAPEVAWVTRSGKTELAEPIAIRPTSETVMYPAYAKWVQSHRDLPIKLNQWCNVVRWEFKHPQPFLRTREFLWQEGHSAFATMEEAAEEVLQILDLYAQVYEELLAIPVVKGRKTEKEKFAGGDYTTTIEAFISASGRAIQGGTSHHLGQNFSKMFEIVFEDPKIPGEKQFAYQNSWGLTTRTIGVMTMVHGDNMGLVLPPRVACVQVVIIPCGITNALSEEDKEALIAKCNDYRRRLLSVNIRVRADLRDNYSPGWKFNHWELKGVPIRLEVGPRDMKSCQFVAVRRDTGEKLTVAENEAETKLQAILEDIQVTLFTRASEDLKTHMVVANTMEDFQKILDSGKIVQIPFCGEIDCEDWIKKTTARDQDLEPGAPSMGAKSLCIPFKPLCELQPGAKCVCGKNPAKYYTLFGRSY
The experiment in a line: PRS inhibitory activity ([32P]pyrophosphate exchange enzyme assay). Type of experiment: biochemical. The settings on record: 300 nM test compound; read-out: inhibitory rate (%) of PRS. How it is done:
The PRS inhibitory activity of the compounds of the present invention was evaluated by the following method.
An expression plasmid of Catalytic Domain of human EPRS was obtained by PCR using human skeletal muscle cDNA Library (Takara Bio Inc.) as a template and 2 kinds of Primers 5′-[…]-3′ (hEPRS-TEV-NheF) (SEQ ID NO: 1) and 5′-[…]-3′ (hEPRS-St-Not-R) (SEQ ID NO: 2). PCR was performed using PrimeStar GXL DNA Polymerase (Takara Bio Inc.) and included (1) 98° C., 1 min, (2) 35 cycles of 98° C., 10 sec, 65° C., 10 sec, 72° C., 1 min, and (3) reaction at 72° C., 1 min. This was cleaved with Nhe I and Not I (Takara Bio Inc.) and inserted using Ligation High (TOYOBO CO., LTD.) into the Nhe I/Not I site of pET21a (Novagen) with His-Avitag inserted thereinto. This was introduced into ECOS JM109 (NIPPON GENE CO., LTD.) to construct His-Avi-hEPRS (998-1512) expression plasmid.
Recombinant human PRS protein was prepared by transforming the His-Avi-hEPRS (998-1512) expression plasmid prepared above into ECOS Competent E. coli BL21(DE3) (NIPPON GENE CO., LTD.). Escherichia coli obtained by transformation was inoculated into 300 mL of LB medium (1% peptone, 0.5% yeast extract, 0.5% sodium chloride, 0.01% ampicillin) and cultured at 30° C. for 16 hr. The obtained culture medium was transferred into a jar culture tank charged with 6 L of the main fermentation medium (0.3% potassium dihydrogen phosphate, 0.6% disodium hydrogen phosphate, 0.1% ammonium chloride, 0.05% sodium chloride, 0.024% magnesium sulfate, 0.02% NEWPOL LB-625, 1.5% sorbitol, 1.5% casamino acid, 0.5% yeast extract, 0.01% ampicillin) and culturing was started at 37° C., quantity of airflow 5 L/min, stirring rotating speed 400 rpm. At the time point when the turbidity of the culture medium reached about 550 Klett units, the culture temperature was lowered to 16° C., isopropyl-β-D-thiogalactopyranoside (IPTG) was added to the final concentration 0.1 mM, and culturing was performed for another 16 hr to induce expression of human PRS. After completion of culturing, the culture medium was centrifuged at 5,000 rpm for 10 min. The obtained human PRS expressing Escherichia coli was suspended in a buffer containing 50 mM Tris-HCl (pH 8.0), 150 mM NaCl, 1 mM DTT, 5 U/ml Benzonase, 20 mM Imidazole and sonicated using Sonifier (BRANSON). The homogenate was centrifuged (33,000×G, 60 min, Beckman Coulter), the obtained supernatant was subjected to adsorption by passage through Ni-NTA Superflow (QIAGEN) column equilibrated in advance with 50 mM Tris-HCl (pH 8.0), 300 mM NaCl, 1 mM DTT, and elution was performed with a buffer containing 50 mM Tris-HCl (pH 8.0), 300 mM NaCl, 1 mM DTT, 250 mM Imidazole. Furthermore, gel filtration was performed using Superdex200 pg column equilibrated in advance with a buffer containing 50 mM Tris-HCl (pH 8.0), 150 mM NaCl, 1 mM DTT, 10% glycerol to give purified human PRS protein. The protein concentration was measured using BCA Protein Assay Kit (PIERCE) and BSA as the standard.
A test compound was dissolved in 5 μL of an assay buffer (50 mM Tris-HCl (pH 7.5), 20 mM KCl, 1 mM DTT, 0.01% Tween 20) and incubated for 60 min with 5 μL of 40 nM human PRS protein dissolved in the assay buffer containing 40 mM MgCl2. An enzyme reaction of the human PRS protein was started by adding 10 μL of a substrate solution containing 300 μM ATP, 160 μM L-Proline, 400 μM pyrophosphate, [^32P]pyrophosphate (PerkinElmer) prepared to 1 MBq/mL. After incubation at room temperature for 30 min, the reaction was discontinued by adding 50 μL of discontinuation/washing solution (1M HCl, 200 mM sodium pyrophosphate) to the reaction mixture. The reaction solution was transferred to a filter plate (Merck Millipore, Billerica, Mass.) previously added with 200 μL of charcoal solution (0.5% HCl solution containing 10% charcoal (w/v)). […]

Experiment [2] has as its system human ovarian cancer cells A2780. The experiment in a line: proliferation inhibitory activity against human ovarian cancer cell A2780 (CellTiter-Glo). Format: cell-based. The settings on record: A2780, 72 h, 1 μM test compound, 3 days of culture, read-out: proliferation inhibitory rate (%) of A2780 cells. How it is done: The proliferation inhibitory activity of the compound of the present invention against human ovarian cancer cell A2780 was evaluated by the following method.
Human ovarian cancer cells A2780 were seeded in a 384 well culture plate at 1000 cells in 30 μL of medium per well by using RPMI-1640 medium (Wako Pure Chemical Industries, Ltd.) containing 10% fetal bovine serum and penicillin/streptomycin. The next day, 10 μL of RPMI-1640 medium containing the test compound was added to the cells. After 3 days of culture, 20 μL of CellTiter-Glo Luminescent Cell Viability Assay solution (Promega) was added. The luminescence signal was measured using EnVision (PerkinElmer) and the inhibitory rate (%) of the test compound was calculated with a well free of seeding of cell as 100% inhibition.
(In general: In ATP-based viability assays light output follows the ATP content of the culture.)

Consider `Cc1cc(N2CCC(C#N)(C3CCC3)C2=O)cc(C(=O)NCc2cc(F)cc(-c3cnn(C)c3)c2)n1` (centres unmarked) [Example 229, 4-(3-cyano-3-cyclobutyl-2-oxopyrrolidin-1-yl)-N-(3-fluoro-5-(1-methyl-1H-pyrazol-4-yl)benzyl)-6-methylpyridine-2-carboxamide], for which the inhibition at 0.3 µM in experiment [1] stood at 100%. Also, the inhibition at 1 µM in experiment [2] was 91%.
The matching figures for `Cn1cc(-c2cc(F)cc(CNC(=O)c3nccc4nc(C5CCOC5)[nH]c34)c2)cn1` (centres unmarked) [Example 103, N-(3-fluoro-5-(1-methyl-1H-pyrazol-4-yl)benzyl)-2-(tetrahydrofuran-3-yl)-3H-imidazo[4,5-c]pyridine-4-carboxamide]: 99% and 73%.
The matching figures for `Cn1cc(-c2cc(F)cc(CNC(=O)c3nccc4nc(C5CCCC5)n(C)c34)c2)nn1` [Example 91, 2-cyclopentyl-N-(3-fluoro-5-(1-methyl-1H-1,2,3-triazol-4-yl)benzyl)-3-methyl-3H-imidazo[4,5-c]pyridine-4-carboxamide]: 101% and 98%.
In the same order, the values of `Cc1cc(N2CC[C@@](C#N)(C3CC3)C2=O)nc(C(=O)NCc2cc(F)cc(-c3cnn(C)c3)c2)n1` [Example 238, 4-((3S)-3-cyano-3-cyclopropyl-2-oxopyrrolidin-1-yl)-N-(3-fluoro-5-(1-methyl-1H-pyrazol-4-yl)benzyl)-6-methylpyrimidine-2-carboxamide] are 101% and 95%.
On to `Cn1c(C2CCCC2)nc2ccnc(C(=O)NCc3cc(F)cc(-c4cc[nH]c(=O)c4)c3)c21` [Example 97, 2-cyclopentyl-N-(3-fluoro-5-(2-oxo-1,2-dihydropyridin-4-yl)benzyl)-3-methyl-3H-imidazo[4,5-c]pyridine-4-carboxamide], for which the inhibition at 0.3 µM in experiment [1] stood at 101%. Besides, the inhibition at 1 µM in experiment [2] came out at 98%.
For the molecule `Cn1ccc(-c2cc(F)cc(CNC(=O)c3nccc4nc(C5CCCC5)n(C)c34)c2)cc1=O` [Example 98, 2-cyclopentyl-N-(3-fluoro-5-(1-methyl-2-oxo-1,2-dihydropyridin-4-yl)benzyl)-3-methyl-3H-imidazo[4,5-c]pyridine-4-carboxamide], the inhibition at 0.3 µM in experiment [1] is 101%. The inhibition at 1 µM in experiment [2] is 98%.
In the same order, the values of `Cc1cn(-c2cc(F)cc(CNC(=O)c3cc(N4CC[C@@](C#N)(C5CC5)C4=O)cc(C)n3)c2)cn1` [Example 228, 4-((3S)-3-cyano-3-cyclopropyl-2-oxopyrrolidin-1-yl)-N-(3-fluoro-5-(4-methyl-1H-imidazol-1-yl)benzyl)-6-methylpyridine-2-carboxamide] are 100% and 88%.
With `Cn1cc2c(CNC(=O)c3nccc4nc(C5CCCC5)[nH]c34)cccc2n1` [Example 94, 2-cyclopentyl-N-((2-methyl-2H-indazol-4-yl)methyl)-3H-imidazo[4,5-c]pyridine-4-carboxamide], in experiment [1], the inhibition at 0.3 µM came to 97%. Also, in experiment [2], the inhibition at 1 µM is 64%.
In the case of `Cc1cc(N2CC[C@@](C#N)(C3CC3)C2=O)cc(C(=O)NCc2cc(F)cc(-c3cnn(C4CCOCC4)c3)c2)n1` [Example 182, 4-((3S)-3-cyano-3-cyclopropyl-2-oxopyrrolidin-1-yl)-N-(3-fluoro-5-(1-(tetrahydro-2H-pyran-4-yl)-1H-pyrazol-4-yl)benzyl)-6-methylpyridine-2-carboxamide], the inhibition at 0.3 µM in experiment [1] is 101%. Further, in experiment [2], the inhibition at 1 µM worked out at 97%.
In the same order, the values of `O=C(NCc1ccccc1Cl)c1nccc2nc(C3CCCC3)[nH]c12` [Example 81, N-(2-chlorobenzyl)-2-cyclopentyl-3H-imidazo[4,5-c]pyridine-4-carboxamide] are 97% and 56%.
In the same order, the values of `Cn1ncc2cccc(CNC(=O)c3nccc4nc(C5CCCC5)[nH]c34)c21` [Example 95, 2-cyclopentyl-N-((1-methyl-1H-indazol-7-yl)methyl)-3H-imidazo[4,5-c]pyridine-4-carboxamide] are 99% and 56%.
As to `Cn1cc(-c2cc(F)cc(CNC(=O)c3ncnc4nc(C5CCCCO5)n(C)c34)c2)cn1` (centres unmarked) [Example 63, N-(3-fluoro-5-(1-methyl-1H-pyrazol-4-yl)benzyl)-7-methyl-8-(tetrahydro-2H-pyran-2-yl)-7H-purine-6-carboxamide], the inhibition at 0.3 µM in experiment [1] is 102%. The inhibition at 1 µM in experiment [2] came out at 98%.
In the same order, the values of `Cc1cc(N2CCC3(CC3)C2=O)cc(C(=O)NCc2cc(F)cc(-c3cnn(C)c3)c2)n1` [Example 233, N-(3-fluoro-5-(1-methyl-1H-pyrazol-4-yl)benzyl)-6-methyl-4-(4-oxo-5-azaspiro[2.4]hept-5-yl)pyridine-2-carboxamide] are 100% and 70%.
In the same order, the values of `Cn1cc(-c2cc(F)cc(CNC(=O)c3nccc4nc(C5CCOC5)n(C)c34)c2)cn1` (centres unmarked) [Example 117, N-(3-fluoro-5-(1-methyl-1H-pyrazol-4-yl)benzyl)-3-methyl-2-(tetrahydrofuran-3-yl)-3H-imidazo[4,5-c]pyridine-4-carboxamide] are 100% and 78%.
As to `Cc1cc(N2CCC(C#N)(CC3CC3)C2=O)cc(C(=O)NCc2cc(F)cc(-c3cnn(C)c3)c2)n1` (centres unmarked) [Example 230, 4-(3-cyano-3-(cyclopropylmethyl)-2-oxopyrrolidin-1-yl)-N-(3-fluoro-5-(1-methyl-1H-pyrazol-4-yl)benzyl)-6-methylpyridine-2-carboxamide], the inhibition at 0.3 µM in experiment [1] was found to be 91%.

For the origin of these results see US10774083B2, “Heterocyclic amide compound” (TAKEDA PHARMACEUTICAL COMPANY LIMITED, priority 2016, dated 2020).
